Tests used:
[1] = biological target: T1, KRAS G12D (Homo sapiens, UniProt P01116, G12D); assay: HTRF nucleotide exchange assay, KRAS G12D; type: biochemical; details: class symbols; for IC50: HTRF nucleotide exchange assay (NEA)
T1 construct: aa1-188 KRAS WT, HRAS WT, NRAS WT, or KRAS containing the G12D
Method: (§1) HTRF Nucleotide Exchange Assay Method
(§2) The capacity of compounds to bind KRAS G12D, other KRAS mutants and wildtype RAS isoforms was quantified using a HTRF nucleotide exchange assay. Recombinant human RAS protein (2 nM; aa1-188 KRAS WT, HRAS WT, NRAS WT, or KRAS containing the G12D, G13D or Q61H amino acid substitutions, or 4 nM KRAS; aa1-188 containing the G12V, G12C, G12A or G12S amino acid substitution, an N-terminal 6× His-tag and leader sequence), and 2 nM Europium-labeled anti-6× His antibody were mixed in assay buffer (10 mM HEPES pH 7.3, 150 mM NaCl, 5 mM MgCl2, 0.05% BSA, 0.0025% NP-40 and 100 mM KF) with various concentrations of compound in a 384-well plate and a volume of 5 μL. After a 60-minute incubation at room temperature, 5 μl of 200 nM EDA-GTP-DY647P1 (diluted in assay buffer) was added to the plate. Following 30-minute incubation at room temperature, time-resolved fluorescence was measured on a PerkinElmer Envision plate reader. DMSO (0.3%) and unlabeled GDP (1 μM) or equivalent tool compound were used to generate the Max and Min assay signals, respectively. Data was analysed using a four-parameter logistic model to calculate IC50 values, with at least two independent replicates were performed for each compound. The results are presented as IC50s in Table 29 where “A” corresponds to an IC50 ≤10 nM, “B” to an IC50 >10 nM up to 100 nM, “C” is >100 nM up to 10 μM, “D” represents <49% inhibition at 10 μM and ND=not determined: […]

[2] = biological target: T2, KRAS WT (Homo sapiens, UniProt P01116); assay: HTRF nucleotide exchange assay, KRAS WT; type: biochemical; details: class symbols; for IC50: HTRF nucleotide exchange assay (NEA)
T2 construct: aa1-188 KRAS WT
Method: as §1, §2

SMILES | IC50 [1] [µM] | IC50 [2] [µM] | KRAS^G12D NEA [1] | KRAS^WT NEA [2]
C#Cc1c(F)ccc2cc(O)cc(-c3cc4nc(OC[C@@]56CCCN5C[C@H](F)C6)nc(N5CCOCC(C)(O)C5)c4c4cn(C)nc34)c12 (stereo partly drawn) [Example 11, 4-[4-(8-ethynyl-7-fluoro-3-hydroxy-1-naphthyl)-2-methyl-7-[[(2R,8S)-2-fluoro-1,2,3,5,6,7-hexahydropyrrolizin-8-yl]methoxy]pyrazolo[4,3-f]quinazolin-9-yl]-6-methyl-1,4-oxazepan-6-ol] | ≤ 0.01 | ≤ 0.01 |  | 
CCc1c(F)ccc2cc(O)cc(-c3cc4nc(OC[C@@]56CCCN5C[C@H](F)C6)nc(N5CCNCC5)c4c4cn(C)nc34)c12 [Example 13, 5-ethyl-6-fluoro-4-[2-methyl-9-piperazin-1-yl-7-[[(2R,8S)-2-fluoro-1,2,3,5,6,7-hexahydropyrrolizin-8-yl]methoxy]pyrazolo[4,3-f]quinazolin-4-yl]naphthalen-2-ol] | 0.01 to 0.1 | 0.1 to 10 |  | 
CCc1c(F)ccc2cc(O)cc(-c3cc4nc(OC[C@@]56CCCN5C[C@H](F)C6)nc(N5CC6CCC(C5)N6)c4c4cn(C)nc34)c12 [Example 15] | ≤ 0.01 | 0.01 to 0.1 |  | 
Cc1cc(N)nc(-c2cc3nc(OCC45CCCN4CC(F)C5)nc(N4CCCOCC4)c3c3cn(C)nc23)c1C(F)(F)F [Example 16, 4-methyl-6-[2-methyl-9-(1,4-oxazepan-4-yl)-7-[(2R,8S)-2-fluoro-1,2,3,5,6,7-hexahydropyrrolizin-8-yl]methoxy]pyrazolo[4,3-f]quinazolin-4-yl]-5-(trifluoromethyl)pyridin-2-amine] |  |  | D (<49% inhibition at 10 μM) | D (<49% inhibition at 10 μM)
CCc1c(F)ccc2cc(O)cc(-c3cc4nc(OC[C@@]56CCCN5C[C@H](F)C6)nc(N5CC6C(=O)NC(=O)C6C5)c4c4cn(C)nc34)c12 (stereo partly drawn) [Example 17, 5-[4-(8-ethyl-7-fluoro-3-hydroxy-1-naphthyl)-2-methyl-7-[[(2R,8S)-2-fluoro-1,2,3,5,6,7-hexahydropyrrolizin-8-yl]methoxy]pyrazolo[4,3-f]quinazolin-9-yl]-3a,4,6,6a-tetrahydropyrrolo[3,4-c]pyrrole-1,3-dione] | ≤ 0.01 | ≤ 0.01 |  | 
CCc1c(F)ccc2cc(O)cc(-c3cc4nc(OCC5CCCN5C)nc(N5CCCOCC5)c4c4cn(C)nc34)c12 (centres unmarked) [Example 18, 5-ethyl-6-fluoro-4-[2-methyl-7-[(1-methylpyrrolidin-2-yl)methoxy]-9-(1,4-oxazepan-4-yl)pyrazolo[4,3-f]quinazolin-4-yl]naphthalen-2-ol] | 0.01 to 0.1 | 0.01 to 0.1 |  | 
CCc1c(F)ccc2cc(O)cc(-c3cc4nc(OCC5CCCCN5C)nc(N5CCCOCC5)c4c4cn(C)nc34)c12 (centres unmarked) [Example 19, 5-ethyl-6-fluoro-4-[2-methyl-7-[(1-methyl-2-piperidyl)methoxy]-(1,4-oxazepan-4-yl)pyrazolo[4,3-f]quinazolin-4-yl]naphthalen-2-ol] | 0.1 to 10 | 0.1 to 10 |  | 
CCc1c(F)ccc2cc(O)cc(-c3cc4nc(OC[C@@]56CCCN5C[C@H](F)C6)nc(N5CCCNCC5)c4c4cn(C)nc34)c12 [Example 20, 4-[9-(1,4-diazepan-1-yl)-2-methyl-7-[[(2R,8S)-2-fluoro-1,2,3,5,6,7-hexahydropyrrolizin-8-yl]methoxy]pyrazolo[4,3-f]quinazolin-4-yl]-5-ethyl-6-fluoro-naphthalen-2-ol] | ≤ 0.01 | 0.01 to 0.1 |  | 
CCNC(=O)c1cc2n(n1)CCCN(c1nc(OC[C@@]34CCCN3C[C@H](F)C4)nc3cc(-c4cc(O)cc5ccc(F)c(CC)c45)c4nn(C)cc4c13)C2 [Example 21, N-ethyl-5-[4-(8-ethyl-7-fluoro-3-hydroxy-1-naphthyl)-2-methyl-7-[[(2R,8S)-2-fluoro-1,2,3,5,6,7-hexahydropyrrolizin-8-yl]methoxy]pyrazolo[4,3-f]quinazolin-9-yl]-4,6,7,8-tetrahydropyrazolo[1,5-a][1,4]diazepine-2-carboxamide] | ≤ 0.01 | ≤ 0.01 |  | 
CCc1c(F)ccc2cc(O)cc(-c3cc4nc(OC[C@@]56CCCN5C[C@H](F)C6)nc(N5CCCn6nc(C(=O)N(C)C)cc6C5)c4c4cn(C)nc34)c12 [Example 22, 5-[4-(8-ethyl-7-fluoro-3-hydroxy-1-naphthyl)-2-methyl-7-[[(2R,8S)-2-fluoro-1,2,3,5,6,7-hexahydropyrrolizin-8-yl]methoxy]pyrazolo[4,3-f]quinazolin-9-yl]-N,N-dimethyl-4,6,7,8-tetrahydropyrazolo[1,5-a][1,4-]diazepine-2-carboxamide] | ≤ 0.01 | ≤ 0.01 |  | 
CCc1c(F)ccc2cc(O)cc(-c3cc4nc(OC[C@@]56CCCN5C[C@H](F)C6)nc(N5CCCn6nc(C(=O)N7CCCC7)cc6C5)c4c4cn(C)nc34)c12 [Example 23, [5-[4-(8-ethyl-7-fluoro-3-hydroxy-1-naphthyl)-2-methyl-7-[[(2R,8S)-2-fluoro-1,2,3,5,6,7-hexahydropyrrolizin-8-yl]methoxy]pyrazolo-[4,3-f]quinazolin-9-yl]4,6,7,8-tetrahydropyrazolo[1,5-a][1,4]diazepin-2-yl]-pyrrolidin-1-yl-methanone] | ≤ 0.01 | ≤ 0.01 |  | 
CCc1c(F)ccc2cc(O)cc(-c3cc4nc(OC[C@@]56CCCN5C[C@H](F)C6)nc(N5CCCn6nc(C(=O)N7CCOCC7)cc6C5)c4c4cn(C)nc34)c12 [Example 24, [5-[4-(8-ethyl-7-fluoro-3-hydroxy-1-naphthyl)-2-methyl-7-[[(2R,8S)-2-fluoro-1,2,3,5,6,7-hexahydropyrrolizin-8-yl]methoxy]pyrazolo[4,3-f]quinazolin-9-yl]-4,6,7,8-tetrahydropyrazolo[1,5-a][1,4]diazepin-2-yl]-morpholino-methanone] | ≤ 0.01 | ≤ 0.01 |  | 
CCc1c(F)ccc2cc(O)cc(-c3cc4nc(OC[C@@]56CCCN5C[C@H](F)C6)nc(N5CC6CNCC6C5)c4c4cn(C)nc34)c12 (stereo partly drawn) [Example 25, 4-(2,7-diazaspiro[4.4]nonan-2-yl)-6-(8-ethyl-7-fluoro-3-hydroxy-1-naphthyl)-2-[[(2R,8S)-2-fluoro-1,2,3,5,6,7-hexahydropyrrolizin-8-yl]methoxy]-7H-pyrrolo[3,4-d]pyrimidin-5-one] | ≤ 0.01 | 0.1 to 10 |  | 
CCc1c(F)ccc2cc(O)cc(-c3cc4nc(OCC56CCCN5CCC6)nc(N5CCOCC(C)(O)C5)c4c4cn(C)nc34)c12 (centres unmarked) [Example 26, 4-[4-(8-ethyl-7-fluoro-3-hydroxy-1-naphthyl)-7-(1,2,3,5,6,7-hexahydropyrrolizin-8-ylmethoxy)-2-methyl-pyrazolo[4,3-f]quinazolin-9-yl]-6-methyl-1,4-oxazepan-6-ol] | ≤ 0.01 | ≤ 0.01 |  | 
CCc1c(F)ccc2cc(O)cc(-c3cc4nc(OCC56CCCN5CCC6)nc(N5CCCC(C)(O)CC5)c4c4cn(C)nc34)c12 (centres unmarked) [Example 27, 1-[4-(8-ethyl-7-fluoro-3-hydroxy-1-naphthyl)-7-(1,2,3,5,6,7-hexahydropyrrolizin-8-ylmethoxy)-2-methyl-pyrazolo[4,3-f]quinazolin-9-yl]-4-methyl-azepan-4-ol] | 0.1 to 10 | 0.1 to 10 |  | 
CCc1c(F)ccc2cc(O)cc(-c3cc4nc(OCC56CCCN5CCC6)nc(N5CCCC(C)(O)C5)c4c4cn(C)nc34)c12 (centres unmarked) [Example 28, 1-[4-(8-ethyl-7-fluoro-3-hydroxy-1-naphthyl)-7-(1,2,3,5,6,7-hexahydropyrrolizin-8-ylmethoxy)-2-methyl-pyrazolo[4,3-f]quinazolin-9-yl]-3-methyl-piperidin-3-ol] | ≤ 0.01 | ≤ 0.01 |  | 
CCc1c(F)ccc2cc(O)cc(-c3cc4nc(OC[C@@]56CCCN5C[C@H](F)C6)nc(N5CCCC(C)(O)CC5)c4c4cn(C)nc34)c12 (stereo partly drawn) [Example 29, 1-[4-(8-ethyl-7-fluoro-3-hydroxy-1-naphthyl)-7-[[(2R,8S)-2-fluoro-1,2,3,5,6,7-hexahydropyrrolizin-8-yl]methoxy]-2-methyl-pyrazolo[4,3-f]quinazolin-9-yl]-4-methyl-azepan-4-ol] |  | 0.1 to 10 | D (<49% inhibition at 10 μM) | 
CCc1c(F)ccc2cc(O)cc(-c3cc4nc(OCC5(CN(C)C)CC5)nc(N5CCCOCC5)c4c4cn(C)nc34)c12 [Example 30, 4-[7-[[1-[(dimethylamino)methyl]cyclopropyl]methoxy]-2-methyl-9-(1,4-oxazepan-4-yl)pyrazolo[4,3-f]quinazolin-4-yl]-5-ethyl-6-fluoro-naphthalen-2-ol] | 0.01 to 0.1 | 0.01 to 0.1 |  | 
CCc1c(F)ccc2cc(O)cc(-c3cc4nc(OCC5CCN(C)CC5)nc(N5CCCOCC5)c4c4cn(C)nc34)c12 [Example 31, 5-ethyl-6-fluoro-4-[2-methyl-7-[(1-methyl-4-piperidyl)methoxy]-9-(1,4-oxazepan-4-yl)pyrazolo[4,3-f]quinazolin-4-yl]naphthalen-2-ol] | 0.1 to 10 | 0.1 to 10 |  | 
